Experimental data: PMC12254266, “Multicolored sequential resonance energy transfer for detection of simultaneous ligand binding at G protein-coupled receptors” (Nature Communications, 2025)
Where “and” joins values, the source holds several entries; their conditions need not be identical. Identical values can stand only once. Each block holds one compound with its values, some of them ahead of it.

What was measured:
FFA1-Nluc [1] = target: T1, FFA1-Nluc (Homo sapiens, UniProt O14842); experiment: DISCo-BRET (endpoint, spectra scan, kinetics) with TUG-2591 and TUG-2597 at C terminal Nluc tagged FFA1; type: binding; set-up: expressed in transfected cells; conditions: for Specific BRET (690/540), % of control: Figure 4Aiii; for Specific BRET (690/540), % of control / Specific BRET (540/450), % of control: single replicate values (technical duplicate); for Specific BRET (540/450), % of control: Figure 4Biii
Method in brief: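 Flp-In T-REx 293 cells expressing Nluc-tagged FFA1 were induced with 100 ng/mL doxycycline for 24 h, then given Nano-Glo (1:800 final). Endpoint and spectral reads were taken 5 min after ligand at 37 °C; kinetics were read at 25 °C with sequential ligand additions. BRET ratios were taken from Nluc, NBD and SulfoCy5 emissions.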

FFA1-Nluc [2] = target: T1, FFA1-Nluc; experiment: Ca2+ mobilisation antagonism of FFA1 agonists (TUG-905, T360) in Flp-In T-REx 293 cells expressing FFA1-Nluc; type: cell-based; set-up: expressed in transfected cells
Experimental: Nluc-FFA1, FFA1-Nluc or untagged FFA1 Flp-In T-REx 293 cells were plated at 50,000 cells per well in poly-D-lysine coated black clear bottom 96-well plates. Cells were then cultured for 24 h until reaching confluency before culture medium was replaced with medium containing 100 ng/mL of doxycycline to induce receptor expression. Cells were cultured for a further 24 h before the assay. On the day of the assay culture medium was removed and replaced with medium containing 3 μM Fura2-AM Ca^2+ dye. […] Fura2 fluorescent emission at 520 nm following excitation with each of 340 and 380 nm was measured in regular intervals both before and after adding test compounds for a total of 90 s per well. Calcium responses were determined by taking the peak 340/380 ratio after first subtracting the ratios obtained prior to addition of test compound. […]
Ca2+ mobilization responses were measured in
Flp-In T-REx 293 cells expressing FFA1-Nluc. Ca2+ responses to increasing concentrations
pre-treated with 10 μM PPTQ. The mode of antagonism for PPTQ was assessed by
N=3 (A-D, F, H) or N=4 (E, G) independent experiments. S ource data are provided as a […]

FFA1-Nluc [3] = target: T1, FFA1-Nluc; experiment: NanoBRET binding (saturation, kinetics) at C terminal Nluc tagged FFA1; set-up: expressed in transfected cells; conditions: Sup Fig 7B
Experimental: (§1) Nluc-FFA1 or FFA1-Nluc Flp-In T-REx 293 cells were plated at 50,000 cells per well in poly-D-lysine coated white 96-well plates. Cells were cultured for 24 h in the plate before medium was replaced with medium containing 100 ng/mL of doxycycline to induce receptor expression. After culturing for a further 24 h, medium was removed, cells were washed with HBSS and incubated in HBSS for 30 min. To start the assay, NanoGlo substrate (Promega, N1110) was added to the cells at a 1:800 final dilution and incubated for 10 min at 37 °C. For endpoint assays, including both saturation and competition binding, test ligands were then added, including both fluorescent and unlabelled competing ligands as indicated, and plates incubated for a further 5 min at 37 °C. NanoBRET was then quantified in a CLARIOstar microplate reader (BMG Labtech) by measuring luminescent emission with the monochrometer set for the Nluc donor at 450–60 nm, and acceptor luminescent emission 540–60 nm (NBD), 600–80 nm (Cy3.5) or 690–100 nm (SulfoCy5), depending on which fluorophore was being tested. The acceptor/donor BRET ratio was then taken as a measure of fluorophore binding. For kinetic on then off NanoBRET experiments plates were washed the same way and substrate was added to the same concentration. However, 10 min after substrate was added plates were inserted into the CLARIOstar microplate reader set to 25 °C to take repeated measurements of luminescent emission for both the donor and the acceptor fluorophore being used. After 5 min of background measurements, the indicated concentration of fluorescent ligand was added using the plate reader injector and luminescent emission was monitored for ~10 min before the reader was paused to manually add a high concentration of appropriate competing ligand to initiate dissociation. The plate was returned to the reader and luminescence measurements were continued for a further 30 min to monitor dissociation of the fluorescent ligand. For kinetic experiments using multiple concentrations of fluorescent ligand, cells were placed in the plate reader immediately after the addition of Nano-Glo substrate and luminescent measurements were taken. After 5 min, the reader was paused to add the indicated concentrations of fluorescent ligand, before measurements were continued. To set non-specific binding for kinetic experiments, the indicated competing ligand was added 5 min before the addition of the fluorescent ligand.

Nluc-FFA1 = target: T2, Nluc-FFA1 (Homo sapiens, UniProt O14842); experiment: NanoBRET binding (saturation, competition, kinetics) at N terminal Nluc tagged FFA1; conditions: footnotes of Supplementary Table 3; read-out: Kd values obtained in NanoBRET saturation experiments (used for pKi) (converted)
T2 construct: expressed in transfected cells
Experimental: as §1

T1 sequence (O14842 whole entry): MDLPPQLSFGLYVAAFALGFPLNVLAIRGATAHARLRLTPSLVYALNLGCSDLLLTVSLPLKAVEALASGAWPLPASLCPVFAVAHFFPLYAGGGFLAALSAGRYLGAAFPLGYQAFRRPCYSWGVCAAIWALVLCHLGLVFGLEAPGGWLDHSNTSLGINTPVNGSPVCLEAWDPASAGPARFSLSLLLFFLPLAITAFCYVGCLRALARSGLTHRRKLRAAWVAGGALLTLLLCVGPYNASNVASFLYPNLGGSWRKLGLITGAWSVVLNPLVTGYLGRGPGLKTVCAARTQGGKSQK
T2 sequence (O14842 whole entry): as above

pIC50 DISCo-BRET SulfoCy5/NBD (FFA1-Nluc [1]; 100 nM TUG-2591 and […] TUG-2597, one site model, NC = No competition): 6.0±0.06 | 'bottom' of the IC50 curve, DISCo-BRET SulfoCy5/NBD (FFA1-Nluc [1]; percentage of binding obtained in the absence of competing ligand, 100 nM TUG-2591 and […] TUG-2597): -15% | pKi DISCo-BRET SulfoCy5/NBD (FFA1-Nluc [1]; using Kd TUG-2591 57 nM): 6.4±0.06 | antagonism of site one agonist (TUG-905) Ca2+ response (FFA1-Nluc [2]; in words): inhibits signalling from site one
SMILES: CCCN1C(=O)c2ccccc2[C@@H](C(=O)O)[C@@H]1c1ccc(OCc2cccc(-c3ccc(OCCCS(C)(=O)=O)cc3C)c2)cc1 (racemic) [TUG-2745]
Specific BRET (690/540), % of control (FFA1-Nluc [1]; log[Ligand] -5): 0.92 % of control and 2.39 % of control and -9.90 % of control and -8.10 % of control and -2.12 % of control and -2.60 % of control and -5.52 % of control and -2.17 % of control | Specific BRET (540/450), % of control (FFA1-Nluc [1]; log[Ligand] -5): 155.62 % of control and 107.52 % of control and 117.08 % of control and 99.92 % of control and 108.86 % of control and 92.88 % of control and 108.34 % of control | Specific BRET (690/540), % of control (FFA1-Nluc [1]; log[Ligand] -5.5): 19.71 % of control and 24.68 % of control and 5.40 % of control and 1.46 % of control and 18.78 % of control and 3.37 % of control and 12.72 % of control and 3.96 % of control | Specific BRET (540/450), % of control (FFA1-Nluc [1]; log[Ligand] -5.5): 128.42 % of control and 65.71 % of control and 109.72 % of control and 87.17 % of control and 104.75 % of control and 74.68 % of control and 117.49 % of control | Specific BRET (690/540), % of control (FFA1-Nluc [1]; log[Ligand] -6): 43.09 % of control and 64.83 % of control and 36.45 % of control and 38.47 % of control and 45.84 % of control and 53.64 % of control and 35.79 % of control and 29.99 % of control | Specific BRET (540/450), % of control (FFA1-Nluc [1]; log[Ligand] -6): 103.22 % of control and 89.76 % of control and 90.60 % of control and 69.85 % of control and 83.23 % of control and 146.81 % of control | Specific BRET (690/540), % of control (FFA1-Nluc [1]; log[Ligand] -6.5): 78.64 % of control and 74.49 % of control and 82.00 % of control and 53.43 % of control and 70.00 % of control and 66.92 % of control and 69.40 % of control and 69.25 % of control | Specific BRET (540/450), % of control (FFA1-Nluc [1]; log[Ligand] -6.5): 86.61 % of control and 51.40 % of control and 85.70 % of control and 71.65 % of control and 68.99 % of control | Specific BRET (690/540), % of control (FFA1-Nluc [1]; log[Ligand] -7): 89.69 % of control and 92.82 % of control and 101.91 % of control and 88.41 % of control and 100.24 % of control and 95.91 % of control and 89.88 % of control and 95.21 % of control | Specific BRET (540/450), % of control (FFA1-Nluc [1]; log[Ligand] -7): 100.64 % of control and 40.23 % of control and 87.50 % of control and 76.88 % of control and 80.22 % of control and 64.08 % of control and 139.58 % of control | Specific BRET (690/540), % of control (FFA1-Nluc [1]; log[Ligand] -8): 95.21 % of control and 98.62 % of control and 92.91 % of control and 107.54 % of control and 94.56 % of control and 87.72 % of control and 98.50 % of control and 104.07 % of control | Specific BRET (540/450), % of control (FFA1-Nluc [1]; log[Ligand] -8): 82.89 % of control and 76.59 % of control and 92.89 % of control and 70.83 % of control and 83.23 % of control and 65.66 % of control and 122.27 % of control | Specific BRET (690/540), % of control (FFA1-Nluc [1]; log[Ligand] -9): 101.38 % of control and 98.62 % of control and 102.14 % of control and 95.05 % of control and 103.71 % of control and 93.98 % of control | Specific BRET (540/450), % of control (FFA1-Nluc [1]; log[Ligand] -9): 57.41 % of control and 46.53 % of control and 87.83 % of control and 70.67 % of control and 68.35 % of control and 75.16 % of control and 107.46 % of control | Ca2% Response (%) (FFA1-Nluc [2]; response to log[T360] -5 in presence of TUG-2745, Sup Fig 6H): 90.24% and 94.14% and 97.83% and 85.85% and 108.28% and 87.68% | Ca2% Response (%) (FFA1-Nluc [2]; response to log[T360] -6 in presence of TUG-2745, Sup Fig 6H): 106.53% and 104.17% and 101.28% and 97.48% and 114.91% and 110.38% | Ca2% Response (%) (FFA1-Nluc [2]; response to log[T360] -8 in presence of TUG-2745, Sup Fig 6H): 5.16% and 2.24% and -0.89% and 3.26% and 3.57% and -0.49% | Ca2% Response (%) (FFA1-Nluc [2]; response to log[T360] -9 in presence of TUG-2745, Sup Fig 6H): -1.82% and 2.64% and 1.16% and 1.84% and 0.35% and 1.32% | Ca2% Response (%) (FFA1-Nluc [2]; response to log[T360] -10 in presence of TUG-2745, Sup Fig 6H): -0.06% and 1.71% and 3.56% and 4.07% and 1.54% and 0.19% | Ca2% Response (%) (FFA1-Nluc [2]; response to log[T360] -11 in presence of TUG-2745, Sup Fig 6H): 2.74% and 2.14% and 3.49% and 1.57% and 6.13% and -0.07% | Ca2% Response (%) (FFA1-Nluc [2]; response to log[TUG-905] -5 in presence of TUG-2745, Sup Fig 6G): 59.62% and 66.91% and 76.48% and 82.73% and 94.09% and 86.41%

Specific BRET (%) (FFA1-Nluc [3]; [TUG-2884] 4 μM, technical duplicates): 96.6176% and 103.382% | Kd (Nluc-FFA1): 940 nM
SMILES: CCCN1C(=O)c2ccccc2[C@@H](C(=O)O)[C@@H]1c1ccc(OCc2cccc(-c3ccc(OCCOCCNc4ccc([N+](=O)[O-])c5nonc45)cc3C)c2)cc1 [TUG-2884]
Specific BRET (%) (FFA1-Nluc [3]; [TUG-2884] 1 μM): 60.2367% and 75.4193% and 48.9635% and 51.5087% and 65.0111% and 65.7411% | Specific BRET (%) (FFA1-Nluc [3]; [TUG-2884] 2 μM): 98.0293% and 80.378% and 57.5363% and 68.9417% and 80.7303% and 88.1476%
